The assay has as its system T1, L-glutaminase.
T1 construct: gene glsA; native enzyme purified from culture supernatant (ammonium sulfate, Sephadex G-200); about 57 kDa by SDS-PAGE
Briefly: Nesslerization of released ammonia; Lineweaver-Burk plot. The format is biochemical, Vreelandella aquamarina. The conditions noted are these: Tris buffer, 37 °C; pH of kinetic assay not stated (general assay pH 7, optimum pH 8.0); assayed L-glutamine 0.01-0.8 M, far above the printed Km.

Each structure is given as a SMILES string.

A word on the Km: it is the substrate concentration at which the rate is half of its maximum.

With `NC(=O)CC[C@H](N)C(=O)O` [L-glutamine], the Michaelis-Menten constant (Km) is 12.2 µM.

(Values after paper PMC8037810, “L-Glutaminase Synthesis by Marine Halomonas meridiana Isolated from the Red Sea and Its Efficiency against Colorectal Cancer Cell Lines” (Molecules, 2021).)
